In patent US9278962B2 (Cytokinetics, Inc., priority 2011, dated 2016):

Test system: rabbit skeletal myofibrils (approximately 90% fast fibers)
Assay: Activation of fast skeletal myofibrils (PUMA coupled-enzyme ATPase assay, AC1.4)
Format: biochemical
Conditions: concentration at which the compound increased enzymatic activity by 40%, calcium at pCa25
Procedure: Rabbit skeletal myofibrils were prepared based upon the method of Herrmann et al. (Biochem. 32(28):7255-7263(1993). Myofibrils were prepared from rabbit psoas muscle purchased from Pel-Freez Biologicals (Arkansas) within 2 days of ordering, stored on ice. Minced muscle was homogenized in 10 volumes of ice-cold “standard” buffer (50 mM Tris, pH 7.4, 0.1 M potassium acetate, 5 mM KCl, 2 mM DTT, 0.2 mM PMSF, 10 μM leupeptin, 5 μM pepstatin, and 0.5 mM sodium azide) containing 5 mM EDTA and 0.5% Triton X-100 using an Omni-Macro homogenizer. Myofibrils were recovered by low speed centrifugation (3000 rpm for 10 minutes) and washed 2 times in the Triton X-100 containing buffer to ensure removal of cellular membrane. Following the Triton washes, myofibrils were washed 3 times in “standard” buffer containing 2 mM magnesium acetate. A final wash in assay buffer (12 mM PIPES, pH 6.8, 60 mM KCl, 1 mM DTT) was performed and brought to 10% sucrose for flash freezing in liquid nitrogen and storage at −80° C.
Fast fiber activators were identified by measuring the enzymatic activity of muscle myofibril preparations using the proprietary PUMA™ (see, e.g., U.S. Pat. Nos. 6,410,254, 6,743,599, 7,202,051, and 7,378,254) assay system. Myofibril preparations consisted of rabbit skeletal muscle (approximately 90% fast fibers) that had been mechanically homogenized and washed with a detergent (triton X-100) to remove cellular membranes. This preparation retained all of the sarcomeric components in a native conformation and the enzymatic activity was still regulated by calcium. Compounds were tested using a myofibril suspension and a level of calcium sufficient to increase enzymatic activity of the myofibrils to 25% of their maximal rate (termed pCa25). Enzymatic activity was tracked via a pyruvate kinase and lactate dehydrogenase-coupled enzyme system. This assay regenerates myosin-produced ADP into ATP by oxidizing NADH, producing an absorbance change at 340 nm. The buffering system was 12 mM Pipes, 2 mM MgCl2, 1 mM DTT at pH 6.8 (PM12 buffer).
Using procedures similar to those described herein, utilizing reagents and intermediates commercially available (e.g., Sigma-Aldrich) or readily synthesized by one of skill in the art, the compounds in Table 2, Table 3, Table 4 and Table 5 were synthesized, characterized and tested. AC1.4 values were determined according to the procedure described in Example 6, and the reported median AC1.4 values are as follows: A=<1 uM; B=1-10 uM; C=10-20 uM; D=>20 uM.

| Compound | Mean AC1.4 (Table 3) | Mean AC1.4 (Table 2) |
| --- | --- | --- |
| NC(=O)c1cccc(-c2nnc(NC[C@]3(c4ncccc4F)C[C@H](F)C3)s2)c1 [3-(5-(((trans)-3-fluoro-1-(3-fluoropyridin-2-yl)cyclobutyl)methylamino)-1,3,4-thiadiazol-2-yl)benzamide] | B (B=1-10 uM) |  |
| CC(Nc1nc(-c2cccc(C(N)=O)c2)ns1)C(=O)c1ccc(F)cc1 (stereo not shown) [3-(5-{[2-(4-fluorophenyl)-1-methyl-2-oxoethyl]amino}-1,2,4-thiadiazol-3-yl)benzamide] |  | C (C=10-20 uM) |
| NC(=O)c1cccc(-c2nsc(NCC(O)c3ccc(F)cc3)n2)c1 (stereo not shown) [3-(5-{[2-(4-fluorophenyl)-2-hydroxyethyl]amino}-1,2,4-thiadiazol-3-yl)benzamide] |  | D (D=>20 uM) |
| CC(C)(CNc1nc(CCC(=O)N2CCCC(O)C2)ns1)c1ccc(F)cc1 (stereo not shown) [3-(5-{[2-(4-fluorophenyl)-2-methylpropyl]amino}(1,2,4-thiadiazol-3-yl))-1-(3-hydroxypiperidyl)propan-1-one] |  | D (D=>20 uM) |
| CC(C)(CNc1nc(CCC(=O)N2CCC(O)CC2)ns1)c1ccc(F)cc1 [3-(5-{[2-(4-fluorophenyl)-2-methylpropyl]amino}(1,2,4-thiadiazol-3-yl))-1-(4-hydroxypiperidyl)propan-1-one] |  | D (D=>20 uM) |
| CC(C)(CNc1nc(CCC(=O)N2CCCC2)ns1)c1ccc(F)cc1 [3-(5-{[2-(4-fluorophenyl)-2-methylpropyl]amino}(1,2,4-thiadiazol-3-yl))-1-pyrrolidinylpropan-1-one] |  | C (C=10-20 uM) |
| CC(C)(CNc1nc(CCC(=O)NCCO)ns1)c1ccc(F)cc1 [3-(5-{[2-(4-fluorophenyl)-2-methylpropyl]amino}(1,2,4-thiadiazol-3-yl))-N-(2-hydroxyethyl)propanamide] |  | C (C=10-20 uM) |
| CC(C)(CNc1nc(-c2cccc(C(N)=O)c2)ns1)c1ccc(F)cc1 [3-(5-{[2-(4-fluorophenyl)-2-methylpropyl]amino}-1,2,4-thiadiazol-3-yl)benzamide] |  | A (A=<1 uM) |
| CC(C)(CNc1nc(-c2cccc(C#N)c2)ns1)c1ccc(F)cc1 [3-(5-{[2-(4-fluorophenyl)-2-methylpropyl]amino}-1,2,4-thiadiazol-3-yl)benzenecarbonitrile] |  | B (B=1-10 uM) |
| CC(C)(CNc1nc(-c2cccc(O)c2)ns1)c1ccc(F)cc1 [3-(5-{[2-(4-fluorophenyl)-2-methylpropyl]amino}-1,2,4-thiadiazol-3-yl)phenol] |  | A (A=<1 uM) |
| CC(C)(CNc1nc(CCC(N)=O)ns1)c1ccc(F)cc1 [3-(5-{[2-(4-fluorophenyl)-2-methylpropyl]amino}-1,2,4-thiadiazol-3-yl)propanamide] |  | C (C=10-20 uM) |
| CC(C)(CNc1nc(CC(O)CO)ns1)c1ccc(F)cc1 (stereo not shown) [3-(5-{[2-(4-fluorophenyl)-2-methylpropyl]amino}-1,2,4-thiadiazol-3-yl)propane-1,2-diol] |  | B (B=1-10 uM) |
| CC(C)(CNc1nc(CCC(=O)O)ns1)c1ccc(F)cc1 [3-(5-{[2-(4-fluorophenyl)-2-methylpropyl]amino}-1,2,4-thiadiazol-3-yl)propanoic acid] |  | D (D=>20 uM) |
| NC(=O)c1cccc(-c2nsc(NCCc3ccc(F)cc3)n2)c1 [3-(5-{[2-(4-fluorophenyl)ethyl]amino}-1,2,4-thiadiazol-3-yl)benzamide] |  | B (B=1-10 uM) |
| N#Cc1cccc(-c2nsc(NCCc3ccc(F)cc3)n2)c1 [3-(5-{[2-(4-fluorophenyl)ethyl]amino}-1,2,4-thiadiazol-3-yl)benzenecarbonitrile] |  | D (D=>20 uM) |
| CN1CCN(C(=O)CNc2nc(-c3cccc(C(N)=O)c3)ns2)CC1 [3-(5-{[2-(4-methylpiperazinyl)-2-oxoethyl]amino}-1,2,4-thiadiazol-3-yl)benzamide] |  | D (D=>20 uM) |
| CC(C)(CNc1nc(-c2cccc(C(N)=O)c2)ns1)c1ccc(F)cn1 [3-(5-{[2-(5-fluoro(2-pyridyl))-2-methylpropyl]amino}-1,2,4-thiadiazol-3-yl)benzamide] |  | B (B=1-10 uM) |
| C[C@H](CNc1nc(-c2cccc(C(N)=O)c2)ns1)c1ccc(F)cc1 [3-(5-{[(2S)-2-(4-fluorophenyl)propyl]amino}-1,2,4-thiadiazol-3-yl)benzamide] |  | A (A=<1 uM) |
| CC(C)(CNc1nc(Cl)ns1)c1ccc(F)cc1 [3-Chloro-N-(2-(4-fluorophenyl)-2-methylpropyl)-1,2,4-thiadiazol-5-amine] |  | B (B=1-10 uM) |
| CN(C)c1nc(-c2cccc(C(N)=O)c2)ns1 [3-[5-(dimethylamino)-1,2,4-thiadiazol-3-yl]benzamide] |  | D (D=>20 uM) |
| CC(=O)N1CCC(CNc2nc(-c3cccc(C(N)=O)c3)ns2)(c2ccc(F)cc2)CC1 [3-[5-({[1-acetyl-4-(4-fluorophenyl)-4-piperidyl]methyl}amino)-1,2,4-thiadiazol-3-yl]benzamide] |  | D (D=>20 uM) |
| CN1CCC(CNc2nc(-c3cccc(C(N)=O)c3)ns2)(c2ccc(F)cc2)CC1 [3-[5-({[4-(4-fluorophenyl)-1-methyl-4-piperidyl]methyl}amino)-1,2,4-thiadiazol-3-yl]benzamide] |  | D (D=>20 uM) |
| NC(=O)c1cccc(-c2nsc(NCC3(c4ccc(F)cc4)CCNCC3)n2)c1 [3-[5-({[4-(4-fluorophenyl)-4-piperidyl]methyl}amino)-1,2,4-thiadiazol-3-yl]benzamide] |  | D (D=>20 uM) |

The next lines start with the values.

| Mean AC1.4 (Table 3) | Mean AC1.4 (Table 2) | Compound |
| --- | --- | --- |
|  | B (B=1-10 uM) | Oc1cccc(Cc2nsc(NCCc3cccc(Cl)c3)n2)c1 [3-[(5-{[2-(3-chlorophenyl)ethyl]amino}-1,2,4-thiadiazol-3-yl)methyl]phenol] |
|  | A (A=<1 uM) | CC(C)(CNc1nc(Cc2cccc(O)c2)ns1)c1ccc(Cl)cc1 [3-[(5-{[2-(4-chlorophenyl)-2-methylpropyl]amino}-1,2,4-thiadiazol-3-yl)methyl]phenol] |
|  | B (B=1-10 uM) | Oc1cccc(Cc2nsc(NCCc3ccc(Cl)cc3)n2)c1 [3-[(5-{[2-(4-chlorophenyl)ethyl]amino}-1,2,4-thiadiazol-3-yl)methyl]phenol] |
|  | A (A=<1 uM) | CC(C)(CNc1nc(Cc2cccc(O)c2)ns1)c1ccc(F)cc1 [3-[(5-{[2-(4-fluorophenyl)-2-methylpropyl]amino}-1,2,4-thiadiazol-3-yl)methyl]phenol] |
|  | D (D=>20 uM) | CN(CC(C)(C)c1ccc(F)cc1)c1nc(Cc2cccc(O)c2)ns1 [3-[(5-{[2-(4-fluorophenyl)-2-methylpropyl]methylamino}-1,2,4-thiadiazol-3-yl)methyl]phenol] |
|  | D (D=>20 uM) | Oc1ccc(CCNc2nc(Cc3cccc(O)c3)ns2)cc1 [3-[(5-{[2-(4-hydroxyphenyl)ethyl]amino}-1,2,4-thiadiazol-3-yl)methyl]phenol] |
|  | A (A=<1 uM) | C[C@@H](CNc1nc(Cc2cccc(O)c2)ns1)c1ccc(F)cc1 [3-[(5-{[(2R)-2-(4-fluorophenyl)propyl]amino}-1,2,4-thiadiazol-3-yl)methyl]phenol] |
|  | A (A=<1 uM) | C[C@H](CNc1nc(Cc2cccc(O)c2)ns1)c1ccc(F)cc1 [3-[(5-{[(2S)-2-(4-fluorophenyl)propyl]amino}-1,2,4-thiadiazol-3-yl)methyl]phenol] |
|  | D (D=>20 uM) | Oc1cccc(Cc2nsc(NCc3ccc(Cl)c(Cl)c3)n2)c1 [3-[(5-{[(3,4-dichlorophenyl)methyl]amino}-1,2,4-thiadiazol-3-yl)methyl]phenol] |
|  | D (D=>20 uM) | Oc1cccc(Cc2nsc(NCc3ccc(Cl)cc3)n2)c1 [3-[(5-{[(4-chlorophenyl)methyl]amino}-1,2,4-thiadiazol-3-yl)methyl]phenol] |
|  | A (A=<1 uM) | CC(C)(CNc1nc(-c2ccc(O)cc2Cl)ns1)c1ccc(F)cc1 [3-chloro-4-(5-{[2-(4-fluorophenyl)-2-methylpropyl]amino}(1,2,4-thiadiazol-3-yl))phenol] |
|  | D (D=>20 uM) | NC(=O)c1cccc(-c2nsc(NCC(=O)C3CCCCN3)n2)c1 (stereo not shown) [3-{5-[(2-oxo-2-piperidylethyl)amino]-1,2,4-thiadiazol-3-yl}benzamide] |
|  | D (D=>20 uM) | N#Cc1cccc(-c2nsc(NCC(=O)C3CCCCN3)n2)c1 (stereo not shown) [3-{5-[(2-oxo-2-piperidylethyl)amino]-1,2,4-thiadiazol-3-yl}benzenecarbonitrile] |
|  | C (C=10-20 uM) | NC(=O)c1cccc(-c2nsc(NCCc3ccccc3)n2)c1 [3-{5-[(2-phenylethyl)amino]-1,2,4-thiadiazol-3-yl}benzamide] |
